Paper PMC5789148, “Embelin Restores Carbapenem Efficacy against NDM-1-Positive Pathogens” (Frontiers in Microbiology, 2018)

Legend:
Type in all cases: biochemical
[1] = molecular target: T1, NDM-1 (New Delhi metallo-β-lactamase-1) (Klebsiella pneumoniae, UniProt C7C422); experiment: single-concentration ([…]) meropenem hydrolysis screen with purified NDM-1; details: read-out: % inhibition at 20 μM
T1 construct: gene blaNDM-1

[2] = molecular target: IMP-1 (Serratia marcescens, UniProt P52699); experiment: meropenem hydrolysis inhibition assay
IMP-1, sequence (P52699 19-246 limits assumed): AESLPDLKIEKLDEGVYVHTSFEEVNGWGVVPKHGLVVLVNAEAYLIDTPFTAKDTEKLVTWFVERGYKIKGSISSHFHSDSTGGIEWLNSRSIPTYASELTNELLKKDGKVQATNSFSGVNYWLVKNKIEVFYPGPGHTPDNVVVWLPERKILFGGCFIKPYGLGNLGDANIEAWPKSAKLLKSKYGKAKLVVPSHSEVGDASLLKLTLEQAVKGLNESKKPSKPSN

[3] = molecular target: VIM-1 (Pseudomonas aeruginosa, UniProt A0A0F7KYQ8); experiment: meropenem hydrolysis inhibition assay
[4] = molecular target: T1, NDM-1 (New Delhi metallo-β-lactamase-1); experiment: meropenem hydrolysis inhibition with purified NDM-1, […] nm (IC50 […])

T1 sequence (C7C422 29-270 limits assumed): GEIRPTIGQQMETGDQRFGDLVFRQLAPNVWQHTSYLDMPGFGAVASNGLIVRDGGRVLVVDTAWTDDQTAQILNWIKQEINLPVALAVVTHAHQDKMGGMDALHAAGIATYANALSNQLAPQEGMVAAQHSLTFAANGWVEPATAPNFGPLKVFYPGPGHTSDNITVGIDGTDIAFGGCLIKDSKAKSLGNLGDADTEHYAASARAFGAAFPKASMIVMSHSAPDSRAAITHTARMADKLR

Row | Compound | inhibition at 20 µM [1] [%] | IC50 [2] [µM] | IC50 [3] [µM] | Ki [4] [µM]
1 | COc1cc(/C=C/C(=O)CC(=O)/C=C/c2ccc(O)c(OC)c2)ccc1O [curcumine] | > 20 | – | – | –
2 | CCCCCCCCCCCC1=C(O)C(=O)C=C(O)C1=O [embelin] | – | ~100 | ~200 | 0.19 ± 0.02
3 | Oc1ccc(/C=C/c2cc(O)cc(O)c2)cc1 [resveratrol] | > 20 | – | – | –
